Here are results for 18 compounds from US10550100B2, “5-[3-[piperzin-1-yl]-3-oxo-propyl]-imidazolidine-2,4-dione derivatives as ADAMTS 4 and 5 inhibitors for treating E.G. osteoarthritis” (GALAPAGOS NV, priority 2016, dated 2020).

What all share (format): biochemical
The target in one assay is human ADAMTS-5 (Homo sapiens (Human), UniProt Q9UNA0). Put plainly: hADAMTS-5 TBIS-1 cleavage assay, Protocol 3. The following applies: Protocol 3, TBIS-1 substrate, 90 min at 37° C.; read-out: hADAMTS-5 potency IC50. As to the method:
The reaction is initiated by adding to the assay plate TBIS-1 (10 μL, 4.5 μM, Anaspec) in the same buffer.
Finally, the fluorescence is read on the Envision (Perkin Elmer) after an incubation of 90 min at 37° C. (Excitation 485 nm, emission 530).

Another assay concerns the target human ADAMTS6 (Homo sapiens (Human), UniProt Q9UKP5). The assay is described as follows: hADAMTS-6 520 MMP FRET substrate XII cleavage assay. To be noted: 37° C. for 2 h, read-out: hADAMTS-6 potency IC50. The essentials:
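FRET cleavage of 520 MMP Substrate XII (Arg-Pro-Lys-Pro-Tyr-Ala-Nva-Trp-Met-Lys) by 0.73 nM enzyme in 25 mM Tris pH8.0, 0.05% CHAPS, 2.5 mM CaCl2. Compound dilution series from 20 μM top, 1/5 steps; substrate added from 1 μM stock, 2 h at 37° C. Fluorescence read at exc485/em530 for IC50.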

Another assay has as its target human TACE (Homo sapiens (Human), UniProt P78536). Put plainly: hTACE 5FAM-[…]-5TAMRA cleavage assay. To be noted: 75 min at room temperature, read-out: hTACE potency IC50. As to the method: Finally, the fluorescence is read on the Envision (Perkin Elmer) after an incubation of 75 min at room temperature (Excitation 485 nm, Emission 530).
Another assay addresses human MMP13 (Homo sapiens (Human), UniProt P45452). Put plainly: hMMP13 390 MMP FRET Substrate I cleavage assay, Protocol 2. To be noted: Protocol 2, 390 MMP FRET Substrate I; read-out: hMMP-13 potency IC50. As to the method:
The basis for the assay is the cleavage of the substrate 390 MMP FRET Substrate I (Anaspec Cat# AS-27076) by human MMP13 (Chemicon, Cat#CC068).
Human MMP13 is preactivated by incubated the enzyme in the same buffer complemented with 1 mM freshly prepared p-Aminophenylmercuric acetate (AMPA) for 1 h at 37° C.
(§1) The reaction is initiated by adding to the assay plate 390 MMP FRET Substrate I (10 μL, 2.5 μM) in the same buffer.
Finally, the fluorescence is read on the Envision (Perkin Elmer) after an incubation of 45 min at room temperature (Excitation 485 nm, Emission 530).

A further assay has as its target human MMP14 (Homo sapiens (Human), UniProt P50281). Put plainly: hMMP14 390 MMP FRET Substrate I cleavage assay. To be noted: 60 min at room temperature, read-out: hMMP-14 potency IC50. As to the method:
The basis for the assay is the cleavage of the substrate 390 MMP FRET Substrate I (Anaspec Cat# AS-27076) by human MMP14 (Biomol, Cat#SE-259).
as §1
Finally, the fluorescence is read on the Envision (Perkin Elmer) after an incubation of 60 min at room temperature (Excitation 485 nm, Emission 530).

Read-outs that look alike come from different tables or passages of the source.

For orientation: IC50 means the concentration needed to halve the response being measured.

Chain of human ADAMTS-5 (Q9UNA0 262-930): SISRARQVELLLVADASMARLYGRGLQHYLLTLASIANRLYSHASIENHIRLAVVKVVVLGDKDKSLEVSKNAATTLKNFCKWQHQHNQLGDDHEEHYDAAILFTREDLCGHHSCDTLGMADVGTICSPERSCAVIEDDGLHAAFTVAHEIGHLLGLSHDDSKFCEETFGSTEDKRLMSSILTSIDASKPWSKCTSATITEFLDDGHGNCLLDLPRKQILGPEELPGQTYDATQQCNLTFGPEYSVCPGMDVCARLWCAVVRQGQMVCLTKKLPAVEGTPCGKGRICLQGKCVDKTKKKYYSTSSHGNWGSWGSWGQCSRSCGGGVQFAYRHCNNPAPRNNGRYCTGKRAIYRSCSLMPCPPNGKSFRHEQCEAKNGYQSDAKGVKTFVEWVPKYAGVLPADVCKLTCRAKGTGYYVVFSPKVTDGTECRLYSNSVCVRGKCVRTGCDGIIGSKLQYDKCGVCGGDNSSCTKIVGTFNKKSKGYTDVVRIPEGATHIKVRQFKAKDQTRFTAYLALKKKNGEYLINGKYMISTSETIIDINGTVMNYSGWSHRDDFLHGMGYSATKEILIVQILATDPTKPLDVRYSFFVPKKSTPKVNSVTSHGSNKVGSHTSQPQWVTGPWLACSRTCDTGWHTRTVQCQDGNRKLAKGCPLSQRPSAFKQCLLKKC
Chain of human ADAMTS6 (Q9UKP5 other isoform, or with tags, fused parts or gaps): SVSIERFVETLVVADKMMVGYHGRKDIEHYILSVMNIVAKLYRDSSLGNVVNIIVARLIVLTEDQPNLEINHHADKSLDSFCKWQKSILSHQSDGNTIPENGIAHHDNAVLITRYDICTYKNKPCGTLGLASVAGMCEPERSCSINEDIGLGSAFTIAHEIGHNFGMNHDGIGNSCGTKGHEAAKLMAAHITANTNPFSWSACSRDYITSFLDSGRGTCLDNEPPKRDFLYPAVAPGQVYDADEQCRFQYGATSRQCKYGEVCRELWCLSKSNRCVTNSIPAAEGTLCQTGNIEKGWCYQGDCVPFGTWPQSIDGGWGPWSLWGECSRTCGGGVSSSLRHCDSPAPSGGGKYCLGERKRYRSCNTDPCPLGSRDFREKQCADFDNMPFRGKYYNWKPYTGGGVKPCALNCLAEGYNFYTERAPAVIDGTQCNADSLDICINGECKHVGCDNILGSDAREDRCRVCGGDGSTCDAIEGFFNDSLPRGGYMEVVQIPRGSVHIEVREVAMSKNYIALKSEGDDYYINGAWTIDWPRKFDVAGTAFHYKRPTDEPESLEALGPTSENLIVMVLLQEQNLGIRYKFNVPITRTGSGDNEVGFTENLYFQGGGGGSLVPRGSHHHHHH
Chain of human TACE (P78536 215-671): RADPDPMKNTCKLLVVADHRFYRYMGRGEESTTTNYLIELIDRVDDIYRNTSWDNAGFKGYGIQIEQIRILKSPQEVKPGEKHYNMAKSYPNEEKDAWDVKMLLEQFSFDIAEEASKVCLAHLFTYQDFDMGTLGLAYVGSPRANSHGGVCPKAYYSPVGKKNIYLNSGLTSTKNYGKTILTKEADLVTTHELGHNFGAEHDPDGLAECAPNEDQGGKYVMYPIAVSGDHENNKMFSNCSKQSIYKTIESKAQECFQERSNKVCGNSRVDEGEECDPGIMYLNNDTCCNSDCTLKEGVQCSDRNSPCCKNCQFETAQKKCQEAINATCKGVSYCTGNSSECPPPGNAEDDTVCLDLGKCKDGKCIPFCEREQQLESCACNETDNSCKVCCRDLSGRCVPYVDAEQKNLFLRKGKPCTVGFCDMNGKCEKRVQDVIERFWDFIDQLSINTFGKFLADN

Take `COc1cc(C2CCN(C(=O)CC[C@@]3(C)NC(=O)NC3=O)CC2)cc(Cl)c1F` [Cpd 80, (5R)-5-[3-[4-(3-chloro-4-fluoro-5-methoxy-phenyl)-1-piperidyl]-3-oxo-propyl]-5-methyl-imidazolidine-2,4-dione]: the 50% inhibitory concentration (IC50) is 50 to 100 nM at human ADAMTS-5; 0.001 to 25 nM on human ADAMTS6; 25 to 50 nM on human TACE (5FAM-[…]-5TAMRA); more than 100 nM at human MMP13; more than 100 nM at human MMP14.
Regarding `CCc1cc(C2CCN(C(=O)CC[C@H]3NC(=O)NC3=O)CC2)cc(OC)c1Cl` [Cpd 106, (5R)-5-[3-[4-(4-chloro-3-ethyl-5-methoxy-phenyl)-1-piperidyl]-3-oxo-propyl] imidazolidine-2,4-dione], the IC50 on human ADAMTS-5 was more than 100 nM; on human ADAMTS6 it was 0.001 to 25 nM; on human TACE (5FAM-[…]-5TAMRA) it was 50 to 100 nM; at human MMP13, more than 100 nM; at human MMP14, more than 100 nM.
`COc1cc(C2CCN(C(=O)CC[C@@]3(C)NC(=O)NC3=O)CC2)cc(C)c1Cl` [Cpd 98, (5R)-5-[3-[4-(4-chloro-3-methoxy-5-methyl-phenyl)-1-piperidyl]-3-oxo-propyl]-5-methyl-imidazolidine-2,4-dione]: the IC50 on human ADAMTS-5 was 50 to 100 nM; on human ADAMTS6 it was 0.001 to 25 nM; on human TACE (5FAM-[…]-5TAMRA), 25 to 50 nM; on human MMP13, more than 100 nM; on human MMP14 it was more than 100 nM.
Consider `COc1cc(C2CCN(C(=O)CCC3(C)NC(=O)NC3=O)CC2)cc(Cl)c1F` (stereo not drawn) [Cpd 73, 5-(3-(4-(3-chloro-4-fluoro-5-methoxyphenyl)piperidin-1-yl)-3-oxopropyl)-5-methylimidazolidine-2,4-dione], for which the IC50 was more than 100 nM at human ADAMTS-5; 0.001 to 25 nM on human ADAMTS6; more than 100 nM on human TACE (5FAM-LAQAVRSSSRK-5TAMRA); more than 100 nM on human MMP13; more than 100 nM on human MMP14.
In the case of `COc1cc(C2CCN(C(=O)CC[C@@]3(C)NC(=O)NC3=O)CC2)cc(OC)c1F` [Cpd 81, (5R)-5-[3-[4-(4-fluoro-3,5-dimethoxy-phenyl)-1-piperidyl]-3-oxo-propyl]-5-methyl-imidazolidine-2,4-dione], the IC50 at human ADAMTS-5 is 50 to 100 nM; on human ADAMTS6, 0.001 to 25 nM; on human TACE (5FAM-[…]-5TAMRA), 25 to 50 nM; on human MMP13, more than 100 nM; at human MMP14 it was more than 100 nM.
Take `COc1cc(Cl)c(C)cc1C1CCN(C(=O)CC[C@@]2(C)NC(=O)NC2=O)CC1` [Cpd 89, (5R)-5-[3-[4-(4-chloro-2-methoxy-5-methyl-phenyl)-1-piperidyl]-3-oxo-propyl]-5-methyl-imidazolidine-2,4-dione]: the IC50 on human ADAMTS-5 was more than 100 nM; at human ADAMTS6, 0.001 to 25 nM; at human TACE (5FAM-[…]-5TAMRA), 50 to 100 nM; at human MMP13, more than 100 nM; at human MMP14, more than 100 nM.
Take `COc1cc(C2CCN(C(=O)CC[C@@]3(C)NC(=O)NC3=O)CC2)cc(N(C)C)c1Cl` [Cpd 90, (5R)-5-[3-[4-[4-chloro-3-(dimethylamino)-5-methoxy-phenyl]-1-piperidyl]-3-oxo-propyl]-5-methyl-imidazolidine-2,4-dione]: the IC50 at human ADAMTS-5 was more than 100 nM; on human ADAMTS6, 0.001 to 25 nM; on human TACE (5FAM-[…]-5TAMRA), 50 to 100 nM; on human MMP13, more than 100 nM; at human MMP14, more than 100 nM.
On to `COc1cc(Cl)c(F)cc1C1CCN(C(=O)CC[C@@]2(C)NC(=O)NC2=O)CC1` [Cpd 100, (5R)-5-[3-[4-(4-chloro-5-fluoro-2-methoxy-phenyl)-1-piperidyl]-3-oxo-propyl]-5-methyl-imidazolidine-2,4-dione], for which the IC50 on human ADAMTS-5 is more than 100 nM; on human ADAMTS6 it was 0.001 to 25 nM; on human TACE (5FAM-LAQAVRSSSRK-5TAMRA), more than 100 nM; on human MMP13 it was more than 100 nM; at human MMP14, more than 100 nM.
For the compound `COc1c(Cl)cccc1C1CCN(C(=O)CCC2(C)NC(=O)NC2=O)CC1` (stereo not drawn) [Cpd 75, 5-(3-(4-(3-chloro-2-methoxyphenyl)piperidin-1-yl)-3-oxopropyl)-5-methylimidazolidine-2,4-dione], the IC50 at human ADAMTS-5, on human ADAMTS6, at human TACE (5FAM-LAQAVRSSSRK-5TAMRA), at human MMP13 and on human MMP14 was more than 100 nM throughout.
Take `COc1cc(Cl)c(Cl)cc1C1CCN(C(=O)CC[C@H]2NC(=O)NC2=O)CC1` [Cpd 61, (R)-5-(3-(4-(4,5-dichloro-2-methoxyphenyl)piperidin-1-tl)-3-oxopropyl) imidazolidine-2,4-dione]: the IC50 on human ADAMTS-5 is more than 100 nM; on human ADAMTS6, 0.001 to 25 nM; at human TACE (5FAM-LAQAVRSSSRK-5TAMRA), more than 100 nM; at human MMP13, more than 100 nM; at human MMP14 it was more than 100 nM.
As to `COc1cc(Cl)c(Cl)cc1C1CCN(C(=O)CC[C@@]2(C)NC(=O)NC2=O)CC1` [Cpd 96, (5R)-5-[3-[4-(4,5-dichloro-2-methoxy-phenyl)-1-piperidyl]-3-oxo-propyl]-5-methyl-imidazolidine-2,4-dione], the IC50 on human ADAMTS-5 is more than 100 nM; on human ADAMTS6, 0.001 to 25 nM; at human TACE (5FAM-[…]-5TAMRA), 50 to 100 nM; at human MMP13, more than 100 nM; at human MMP14, more than 100 nM.
As to `COc1cc(C2CCN(C(=O)CC[C@H]3NC(=O)NC3=O)CC2)cc(C)c1Cl` [Cpd 115, (5R)-5-[3-[4-(4-chloro-3-methoxy-5-methyl-phenyl)-1-piperidyl]-3-oxo-propyl] imidazolidine-2,4-dione], the IC50 is more than 100 nM at human ADAMTS-5; 0.001 to 25 nM on human ADAMTS6; 50 to 100 nM on human TACE (5FAM-[…]-5TAMRA); more than 100 nM at human MMP13; more than 100 nM at human MMP14.
`COc1cc(Cl)c(F)cc1C1CCN(C(=O)C(C)CC2(C)NC(=O)NC2=O)CC1` (stereo not drawn) [Cpd 110, 5-[3-[4-(4-chloro-5-fluoro-2-methoxy-phenyl)-1-piperidyl]-2-methyl-3-oxo-propyl]-5-methyl-imidazolidine-2,4-dione]: the IC50 was 50 to 100 nM on human ADAMTS-5; 0.001 to 25 nM on human ADAMTS6; 50 to 100 nM on human TACE (5FAM-[…]-5TAMRA); more than 100 nM on human MMP13; more than 100 nM at human MMP14.
As to `COC[C@]1(C[C@H](C)C(=O)N2CCC(c3cc(C)c(Cl)c(OC)c3)CC2)NC(=O)NC1=O` (stereo in doubt) [Cpd 114, 5-[3-[4-(4-chloro-3-methoxy-5-methyl-phenyl)-1-piperidyl]-2-methyl-3-oxo-propyl]-5-(methoxymethyl) imidazolidine-2,4-dione], the IC50 was 25 to 50 nM on human ADAMTS-5; 0.001 to 25 nM on human ADAMTS6; 50 to 100 nM at human TACE (5FAM-[…]-5TAMRA); more than 100 nM at human MMP13; more than 100 nM at human MMP14.
Turning to `CCc1cc(C2CCN(C(=O)[C@@H](C)C[C@@]3(COC)NC(=O)NC3=O)CC2)cc(OC)c1Cl` (stereo in doubt) [Cpd 104, 5-[3-[4-(4-chloro-3-ethyl-5-methoxy-phenyl)-1-piperidyl]-2-methyl-3-oxo-propyl]-5-(methoxymethyl) imidazolidine-2,4-dione], the 50% inhibitory concentration (IC50) was 25 to 50 nM at human ADAMTS-5; 0.001 to 25 nM at human ADAMTS6; 50 to 100 nM at human TACE (5FAM-[…]-5TAMRA); more than 100 nM on human MMP13; more than 100 nM at human MMP14.
Regarding `COc1cc(Cl)ccc1C1CCN(C(=O)CC[C@@]2(C)NC(=O)NC2=O)CC1` [Cpd 79, (5R)-5-[3-[4-(4-chloro-2-methoxy-phenyl)-1-piperidyl]-3-oxo-propyl]-5-methyl-imidazolidine-2,4-dione], the IC50 at human ADAMTS-5 was more than 100 nM; on human ADAMTS6, 0.001 to 25 nM; on human TACE (5FAM-LAQAVRSSSRK-5TAMRA), more than 100 nM; on human MMP13 it was more than 100 nM; at human MMP14, more than 100 nM.
As for `COc1cc(F)c(Cl)cc1C1CCN(C(=O)CC[C@@]2(C)NC(=O)NC2=O)CC1` [Cpd 101, (5R)-5-[3-[4-(5-chloro-4-fluoro-2-methoxy-phenyl)-1-piperidyl]-3-oxo-propyl]-5-methyl-imidazolidine-2,4-dione], the IC50 at human ADAMTS-5 was more than 100 nM; on human ADAMTS6, 25 to 50 nM; on human TACE (5FAM-LAQAVRSSSRK-5TAMRA) it was more than 100 nM; on human MMP13, more than 100 nM; at human MMP14, more than 100 nM.
As for `Cc1cc(Cl)c(Cl)cc1C1CCN(C(=O)CCC2(C)NC(=O)NC2=O)CC1` (stereo not drawn) [Cpd 71, 5-(3-(4-(4,5-dichloro-2-methylphenyl)piperidin-1-yl)-3-oxopropyl)-5-methylimidazolidine-2,4-dione], the IC50 at human ADAMTS-5 was more than 100 nM; at human ADAMTS6, 0.001 to 25 nM; at human TACE (5FAM-[…]-5TAMRA) it was 50 to 100 nM; on human MMP13, more than 100 nM; on human MMP14, more than 100 nM.
